The source of these data is patent US10689377B2 (Mirati Therapeutics, Inc., priority 2017, dated 2020).

In general, IC50 refers to the concentration that gives 50% inhibition.

The target in experiment [1] is KRas G12C (Homo sapiens, UniProt P01116, G12C). Briefly: Cellular inhibition of KRas G12C measured by Phospho-ERK in NCI-H358 cells. The format is cell-based. As to conditions: pERK(Thr202/Tyr204) normalized with GAPDH, NCI-H358 cells, 3 hours; read-out: IC50. The essentials:
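Ratio of phospho-ERK(Thr202/Tyr204) to GAPDH, read by near-infrared secondary antibodies on fixed, permeabilised NCI-H358 cells, expressed relative to DMSO control. Compound exposure was 3 h at 0.5% DMSO. IC50 values come from 4-parameter curve fits.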

Experiment [2] addresses KRas G12C (Homo sapiens, UniProt P01116, C118S/C51S/C80L/G12C). The experiment is described as follows: KRas G12C Modification Assay (LCMS detection of covalent adduct). Type of experiment: binding. As to conditions: normalized percent of control; 5 μM concentration for 3 hours. The procedure:
A 10 μL aliquot of each protein solution was then transferred to a 384 well microtiter plate. Initial compound stocks were generated at fifty times their desired final assay concentration in DMSO.
Exemplary compounds of Formula (I) were diluted 25-fold into K-Ras Assay Buffer to a final of two times their final concentration. A 10 μL aliquot of each diluted compound solution was then added to each of the protein solutions in the microtiter plate to initiate reaction. […] At each time point, the reactions were quenched with 20 μL of a 25 mM acetic acid solution. […] Once all reactions were quenched, the plates were heat sealed and the samples were injected into a LC/MS system for data acquisition.
Samples were injected in their liquid phase onto a C-3 reverse phase column to remove assay buffer and prepare the samples for mass spectrometer. The proteins were eluted from the column using an acetonitrile gradient and fed directly into the mass analyzer. Initial raw data analysis took place in Agilent MassHunter software immediately post data acquisition.
Raw data analysis of the intact protein was exclusively a deconvolution of the multiple charge states of each protein in solution using a maximum entropy deconvolution provided in Mass Hunter. To minimize complexity, only the data over limited mass ranges were considered for analysis, with a minimum of one Dalton mass step intervals. The heights of all masses identified during raw data analysis were exported to be further analyzed in Spotfire® data analysis software.
Final data analysis was a multistep process in the Spotfire® data analysis software package. Briefly, each protein mass was calculated as a percent of the total signal of that sample, that percentage was then normalized to the percentage of signal of the protein in the absence of reactive compounds. Those normalized signals were reported as normalized percent of control (POC). […] Key: “A”≤25% POC; “B”>25% POC-≤50% POC; “C”>50% POC and ND=not determined.

Regarding `C=C(F)C(=O)N1CCN(c2nc(OC[C@H]3C[C@@H](F)CN3C)nc3c2CCN(c2cccc4cccc(Cl)c24)C3)C[C@@H]1CC#N` [Example 558, 2-((S)-4-(7-(8-Chloronaphthalen-1-yl)-2-(((2R,4R)-4-fluoro-1-methylpyrrolidin-2-yl)methoxy)-5,6,7,8-tetrahydropyrido[3,4-d]pyrimidin-4-yl)-1-(2-fluoroacryloyl)piperazin-2-yl)acetonitrile], the IC50 at KRas G12C [1] fell in the range of 0.0001 to 1 µM. Moreover, the POC entry at KRas G12C [2] is reported as “C (“C”>50% POC)”.

Turning to `C=C(F)C(=O)N1CCN(c2nc(OC[C@@H]3CC(F)(F)CN3C)nc3c2CCN(c2cccc4cccc(C)c24)C3)C[C@@H]1CC#N` [Example 530, 2-((S)-4-(2-(((S)-4,4-difluoro-1-methylpyrrolidin-2-yl)methoxy)-7-(8-methylnaphthalen-1-yl)-5,6,7,8-tetrahydropyrido[3,4-d]pyrimidin-4-yl)-1-(2-fluoroacryloyl)piperazin-2-yl)acetonitrile], on KRas G12C [1], the half-maximal inhibitory concentration (IC50) lay within 0.0001 to 1 µM. In addition, the POC result at KRas G12C [2] is on record as “C (“C”>50% POC)”.

In the case of `C=CC(=O)N1CCN(c2nc(OCCCO)nc3c2CCN(c2cccc4ccccc24)C3)CC1CC#N` (stereo not shown) [Example 231, 2-(1-acryloyl-4-(2-(3-hydroxypropoxy)-7-(naphthalen-1-yl)-5,6,7,8-tetrahydropyrido[3,4-d]pyrimidin-4-yl)piperazin-2-yl)acetonitrile], the IC50 at KRas G12C [1] fell in the range of 0.0001 to 1 µM. Besides, on KRas G12C [2], the POC entry is on record as “C (“C”>50% POC)”.

For `Cc1cccc2cccc(N3CCc4c(nc(OC[C@@H]5CC(F)(F)CN5C)nc4N4CCN(C(=O)/C=C/CF)[C@@H](CC#N)C4)C3)c12` [Example 529, 2-((S)-4-(2-(((S)-4,4-difluoro-1-methylpyrrolidin-2-yl)methoxy)-7-(8-methylnaphthalen-1-yl)-5,6,7,8-tetrahydropyrido[3,4-d]pyrimidin-4-yl)-1-((E)-4-fluorobut-2-enoyl)piperazin-2-yl)acetonitrile], at KRas G12C [1], the IC50 fell in the range of 0.0001 to 1 µM. In addition, at KRas G12C [2], the POC result is recorded as “C (“C”>50% POC)”.

Regarding `C=CC(=O)N1CCN(c2nc(OC[C@@H]3CCCN3C)nc3c2CCN(c2c(C)c(C)cc4[nH]ncc24)C3)C[C@@H]1CC#N` [Example 462, 2-[(2S)-4-[7-(5,6-dimethyl-1H-indazol-4-yl)-2-[[(2S)-1-methylpyrrolidin-2-yl]methoxy]-6,8-dihydro-5H-pyrido[3,4-d]pyrimidin-4-yl]-1-prop-2-enoyl-piperazin-2-yl]acetonitrile], the concentration for half-maximal inhibition (IC50) on KRas G12C [1] was 0.0001 to 1 µM. The POC entry at KRas G12C [2] is listed as “C (“C”>50% POC)”.

With `C=C(F)C(=O)N1CCN(c2nc(OC[C@@H]3CCCN3C)nc3c2CCN(c2nccc4cccc(Br)c24)C3)C[C@@H]1CC#N` [Example 594, 2-((S)-4-(7-(8-Bromoisoquinolin-1-yl)-2-(((S)-1-methylpyrrolidin-2-yl)methoxy)-5,6,7,8-tetrahydropyrido[3,4-d]pyrimidin-4-yl)-1-(2-fluoroacryloyl)piperazin-2-yl)acetonitrile], the half-inhibitory concentration (IC50) on KRas G12C [1] was greater than 1 µM. The POC entry at KRas G12C [2] was “A (“A”≤25% POC)”.

For the compound `C=CC(=O)N1CCN(c2nc(OC[C@@H]3CCCN3C)nc3c2CCN(c2c(C)ccc4[nH]ncc24)C3)CC1CC#N` (stereo partly drawn) [Example 148, 2-[4-[7-(5-methyl-1H-indazol-4-yl)-2-[[(2S)-1-methylpyrrolidin-2-yl]methoxy]-6,8-dihydro-5H-pyrido[3,4-d]pyrimidin-4-yl]-1-prop-2-enoyl-piperazin-2-yl]acetonitrile], the IC50 on KRas G12C [1] lay within 0.0001 to 1 µM. Besides, the POC result on KRas G12C [2] was “C (“C”>50% POC)”.

Turning to `CN1C[C@H](F)C[C@H]1COc1nc2c(c(N3CCN(C(=O)/C=C/CF)[C@@H](CC#N)C3)n1)CCN(c1cccc3cccc(Cl)c13)C2` [Example 582, 2-((S)-4-(7-(8-Chloronaphthalen-1-yl)-2-(((2S,4R)-4-fluoro-1-methylpyrrolidin-2-yl)methoxy)-5,6,7,8-tetrahydropyrido[3,4-d]pyrimidin-4-yl)-1-((E)-4-fluorobut-2-enoyl)piperazin-2-yl)acetonitrile], at KRas G12C [1], the IC50 lay within 0.0001 to 1 µM. The POC entry at KRas G12C [2] is recorded as “C (“C”>50% POC)”.

As to `C=C(F)C(=O)N1CCN(c2nc(OC[C@@H]3CCCN3)nc3c2CCN(c2cccc4cccc(Cl)c24)C3)C[C@@H]1CC#N` [Example 571, 2-((S)-4-(7-(8-Chloronaphthalen-1-yl)-2-((S)-pyrrolidin-2-ylmethoxy)-5,6,7,8-tetrahydropyrido[3,4-d]pyrimidin-4-yl)-1-(2-fluoroacryloyl)piperazin-2-yl)acetonitrile], on KRas G12C [1], the IC50 lay in the range of 0.0001 to 1 µM. The POC result at KRas G12C [2] was “C (“C”>50% POC)”.

As to `CC#CC(=O)N1CCN(c2nc(OC[C@@H]3CCCN3C)nc3c2CCN(c2cccc4ccccc24)C3)CC1CC#N` (stereo partly drawn) [Example 242, 2-(1-(but-2-ynoyl)-4-(2-(((S)-1-methylpyrrolidin-2-yl)methoxy)-7-(naphthalen-1-yl)-5,6,7,8-tetrahydropyrido[3,4-d]pyrimidin-4-yl)piperazin-2-yl)acetonitrile], the IC50 on KRas G12C [1] was in the range of 0.0001 to 1 µM. Further, the POC entry on KRas G12C [2] is on record as “C (“C”>50% POC)”.

For the compound `Cc1cccc2cccc(N3CCc4c(nc(OC[C@@H]5CCN(C)C5)nc4N4CCN(C(=O)/C=C/CF)[C@@H](CC#N)C4)C3)c12` [Example 581, 2-[(2S)-1-[(E)-4-fluorobut-2-enoyl]-4-[7-(8-methyl-1-naphthyl)-2-[[(3R)-1-methylpyrrolidin-3-yl]methoxy]-6,8-dihydro-5H-pyrido[3,4-d]pyrimidin-4-yl]piperazin-2-yl]acetonitrile], the 50% inhibitory concentration (IC50) at KRas G12C [1] fell in the range of 0.0001 to 1 µM. The POC entry on KRas G12C [2] was “C (“C”>50% POC)”.

Regarding `C=CC(=O)N1CCN(c2nc(OC[C@@H]3CCCN3C)nc3c2CCN(c2c(F)c(O)cc4ccccc24)C3)CC1` [Example 249, 1-[4-[7-(2-fluoro-3-hydroxy-1-naphthyl)-2-[[(2S)-1-methylpyrrolidin-2-yl]methoxy]-6,8-dihydro-5H-pyrido[3,4-d]pyrimidin-4-yl]piperazin-1-yl]prop-2-en-1-one], the IC50 on KRas G12C [1] was in the range of 0.0001 to 1 µM. Besides, on KRas G12C [2], the POC entry is “C (“C”>50% POC)”.

Regarding `C=C(F)C(=O)N1CCN(c2nc(OC[C@@H]3CCCN3C)nc3c2CCN(c2cccc4ccnc(Cl)c24)C3)C[C@@H]1CC#N` [Example 595, 2-((S)-4-(7-(1-chloroisoquinolin-8-yl)-2-(((S)-1-methylpyrrolidin-2-yl)methoxy)-5,6,7,8-tetrahydropyrido[3,4-d]pyrimidin-4-yl)-1-(2-fluoroacryloyl)piperazin-2-yl)acetonitrile], at KRas G12C [1], the IC50 was in the range of 0.0001 to 1 µM. Besides, the POC result on KRas G12C [2] is “C (“C”>50% POC)”.

As for `COC/C=C/C(=O)N1CCN(c2nc(OC[C@H]3CCCN3C)nc3c2CCN(c2cccc4cccc(C)c24)C3)C[C@@H]1CC#N` [Example 554, 2-[(2S)-1-[(E)-4-Methoxybut-2-enoyl]-4-[7-(8-methyl-1-naphthyl)-2-[[(2R)-1-methylpyrrolidin-2-yl]methoxy]-6,8-dihydro-5H-pyrido[3,4-d]pyrimidin-4-yl]piperazin-2-yl] acetonitrile], the IC50 at KRas G12C [1] lay within 0.0001 to 1 µM. The POC entry on KRas G12C [2] was “C (“C”>50% POC)”.

With `C=C(F)C(=O)N1CCN(c2nc(OC[C@@H]3CCCN3C)nc3c2CCN(c2cc(O)cc4ccccc24)C3)C[C@@H]1CC#N` [Example 556, 2-[(2S)-1-(2-Fluoroprop-2-enoyl)-4-[7-(3-hydroxy-1-naphthyl)-2-[[(2S)-1-methylpyrrolidin-2-yl]methoxy]-6,8-dihydro-5H-pyrido[3,4-d]pyrimidin-4-yl]piperazin-2-yl]acetonitrile], the IC50 at KRas G12C [1] lay within 0.0001 to 1 µM. Further, on KRas G12C [2], the POC entry is given as “C (“C”>50% POC)”.

`CN1CCC[C@@H]1COc1nc2c(c(N3CCN(C(=O)/C=C/CF)[C@@H](CC#N)C3)n1)CCN(c1cccc3cccc(Cl)c13)C2` [Example 586, 2-[(2S)-4-[7-(8-chloro-1-naphthyl)-2-[[(2R)-1-methylpyrrolidin-2-yl]methoxy]-6,8-dihydro-5H-pyrido[3,4-d]pyrimidin-4-yl]-1-[(E)-4-fluorobut-2-enoyl]piperazin-2-yl]acetonitrile]: the IC50 at KRas G12C [1] lay in the range of 0.0001 to 1 µM. Further, the POC entry at KRas G12C [2] is listed as “C (“C”>50% POC)”.

`C=CC(=O)N1CCN(c2nc(OCCCN3CCOCC3)nc3c2CCN(c2c(C(F)(F)F)ccc4[nH]ncc24)C3)CC1` [Example 180, 1-[4-[2-(3-morpholinopropoxy)-7-[5-(trifluoromethyl)-1H-indazol-4-yl]-6,8-dihydro-5H-pyrido[3,4-d]pyrimidin-4-yl]piperazin-1-yl]prop-2-en-1-one]: the IC50 on KRas G12C [1] was in the range of 0.0001 to 1 µM. The POC entry at KRas G12C [2] is reported as “C (“C”>50% POC)”.
